These results are taken from patent US20230293562A1, “[…] COMBINATION OF GALNAC-OLIGO[…] AND SAPONIN, AND USES THEREOF” (SAPREME TECHNOLOGIES B.V., priority 2020, published 2023).

[BNANC] = BNA^NC bridged nucleic acid nucleoside; {ThiolC6} = thiol C6 linker; d = 2'-deoxy (DNA)

What all share (format): cell-based
Data set [1] concerns ApoB. Briefly: ApoB RNA expression analysis in human primary hepatocytes. Conditions: read-out: IC50 ApoB gene silencing. As for the experimental part:
(§1) ApoBBNA (ApoBBNA#01, targeting human ApoB mRNA) was conjugated to trivalent-GalNAc ((GalNAc)3) (FIG. 6) and primary hepatocytes (ASGPR1^+) cells were treated with a range of concentrations of (GalNAc)3-ApoBBNA#01 with and without addition of 2000 nM SO1861. ApoB gene silencing in primary hepatocytes (ASGPR1^+) cells was determined.
(§2) ApoB gene silencing in primary hepatocytes (ASGPR1^+) cells was determined. […] The dotted line in the ApoBBNA#02 RNAiMAX indicates concentrations at which toxicity and cell death occurs.
(§3) RNA from cells was isolated using TRI Reagent® Solution (Thermo Scientific) according to the manufacturer’s instruction. Conversion into cDNA was performed using iScript™ cDNA Synthesis Kit (BioRad) using standard protocols. ApoB expression levels and levels of specific hepatocyte housekeeping genes were determined using quantitative real-time PCR assays (qRT-PCR) using iTaq™ Universal SYBR® Green Supermix (BioRad) and the Light Cycler 480 (Roche Diagnostics, Rotkreuz, Switzerland) with specific DNA primers, listed in Table A4 (murine) and Table A2 (human). Analysis was done by the ΔCt method to determine ApoB expression relative to 2 hepatocyte-specific housekeeping control mRNAs. Each analysis reaction was performed in triplicate.

Data set [2] relates to human primary hepatocytes (ASGPR1+). Kind of data set: Cell viability assay on human primary hepatocytes. Conditions: + RNAiMAX. The procedure:
as §1, §2
Briefly, the MTS solution was diluted 20× in DMEM without phenol red (PAN-Biotech GmbH) supplemented with 10% FBS. The cells were washed once with 200 µL/PBS well, after which 100 µL diluted MTS solution was added/well. The plate was incubated for approximately 20-30 minutes at 37° C. Subsequently, the OD at 492 nm was measured on a Thermo Scientific Multiskan FC plate reader (Thermo Scientific).

In data set [3] the test system is ApoB. Kind of data set: ApoB RNA expression analysis (qPCR) in mouse primary hepatocytes. Conditions: 72 hrs incubation. The procedure:
as §3
Cryopreserved primary mouse hepatocytes ([…] Cell Culture Technology GmbH, Germany) were thawed in hepatocyte thawing media (HTM, […] Cell Culture Technology GmbH, Germany) and washed 1x with hepatocyte wash media (HWM, […] Cell Culture Technology GmbH, Germany). Cells were re-suspended in hepatocyte plating media (HPM Cryo, […] Cell Culture Technology GmbH, Germany) at a density of approx. 0.275 × 10^6 cells/ml. […] Plating medium was replaced by 315 µl or 108 µl assay media (MHM, […] Cell Culture Technology GmbH, Germany), after which conjugates were added from a 10x concentrated stock solution in PBS.

A word on the IC50: it is the concentration that inhibits the measured activity by half. On to “ApoBBNA#02: murine and human sequence-compatible ApoB BNA^NC oligonucleotide 5′-GCattggtatTCA-3′ [SEQ ID NO: 12], fully phosphorothioated (antisense GCATTGGTATTCA; sugars from the 5' end [BNANC]2 d8 [BNANC]3, all phosphorothioate, 5' {ThiolC6}, methylation of C not given here)”, for which the IC50 was 5 nM in data set [1] (RNAiMAX transfection); 200 nM in data set [1] (alone, without SO1861-EMCH); 100 nM in data set [2]; 20 nM in data set [3] (alone, without SO1861-EMCH, read-out: IC50 ApoB RNA expression inhibition). Further, in data set [3], the “fold less potent in ApoB RNA downmodulation than (GalNAc)3-ApoB#02 BNA + 2000 nM SO1861-EMCH” value is 100 - 667 fold.
